Measured values taken from ChEMBL document CHEMBL3808342, “Discovery and optimization of a novel series of highly CNS penetrant M4 PAMs based on a 5,6-dimethyl-4-(piperidin-1-yl)thieno[2,3-d]pyrimidine core” (Bioorg Med Chem Lett, 2016).
Calls of active or inactive are those of the source. The calls are words filed in the database; no cut-off is given here.

How the values were obtained:
[1] = molecular target: T1, Cytochrome P450 1A2 (Homo sapiens, UniProt P05177); assay: Inhibition of CYP1A2 (unknown origin); type: ADME
T1 sequence (P05177 whole entry): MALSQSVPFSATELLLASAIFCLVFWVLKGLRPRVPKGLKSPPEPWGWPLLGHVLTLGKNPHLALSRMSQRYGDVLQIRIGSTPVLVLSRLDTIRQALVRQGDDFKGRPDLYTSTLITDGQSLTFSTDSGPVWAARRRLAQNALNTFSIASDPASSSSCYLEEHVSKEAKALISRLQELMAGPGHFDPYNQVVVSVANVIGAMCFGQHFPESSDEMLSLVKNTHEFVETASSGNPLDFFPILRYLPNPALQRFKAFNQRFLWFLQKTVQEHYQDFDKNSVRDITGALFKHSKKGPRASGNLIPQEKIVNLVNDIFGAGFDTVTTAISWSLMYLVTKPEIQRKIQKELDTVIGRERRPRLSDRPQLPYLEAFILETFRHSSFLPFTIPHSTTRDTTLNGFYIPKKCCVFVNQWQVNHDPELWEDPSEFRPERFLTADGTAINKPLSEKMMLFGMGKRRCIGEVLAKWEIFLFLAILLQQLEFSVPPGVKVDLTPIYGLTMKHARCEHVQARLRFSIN

[2] = molecular target: T2, Muscarinic acetylcholine receptor M4 (Rattus norvegicus, UniProt P08485); assay: Positive allosteric modulation of rat M4 receptor expressed in CHO cells coexpressing Gqi5 by calcium mobilization assay; type: functional, cell-based
T2 sequence (P08485 whole entry): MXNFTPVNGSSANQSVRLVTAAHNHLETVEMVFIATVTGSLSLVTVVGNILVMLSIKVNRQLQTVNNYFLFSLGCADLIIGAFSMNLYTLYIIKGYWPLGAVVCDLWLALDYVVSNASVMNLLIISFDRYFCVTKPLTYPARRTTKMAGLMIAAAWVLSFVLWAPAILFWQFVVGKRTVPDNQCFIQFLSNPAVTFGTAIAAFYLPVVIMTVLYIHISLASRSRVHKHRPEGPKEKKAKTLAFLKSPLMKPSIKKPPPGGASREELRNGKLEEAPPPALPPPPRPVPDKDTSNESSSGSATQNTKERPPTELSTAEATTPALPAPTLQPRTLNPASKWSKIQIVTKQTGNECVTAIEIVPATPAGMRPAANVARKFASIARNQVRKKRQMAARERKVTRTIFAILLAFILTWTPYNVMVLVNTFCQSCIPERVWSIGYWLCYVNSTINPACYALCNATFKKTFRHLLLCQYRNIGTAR

[3] = molecular target: T3, Muscarinic acetylcholine receptor M4 (Rattus norvegicus) (UniProt P08485); assay: Positive allosteric modulation of rat M4 receptor expressed in CHO cells coexpressing Gqi5 by calcium mobilization assay relative to acetylcholine; type: functional, cell-based
T3 sequence (whole entry): T2 sequence (P08485 whole entry)

[4] = Fraction unbound in rat plasma; type: ADME, cell-free
[5] = molecular target: T4, Muscarinic acetylcholine receptor M4 (Homo sapiens) (UniProt P08173); assay: Positive allosteric modulation of human M4 receptor expressed in CHO cells coexpressing Gqi5 by calcium mobilization assay relative to acetylcholine; type: functional, cell-based
T4 sequence (whole entry): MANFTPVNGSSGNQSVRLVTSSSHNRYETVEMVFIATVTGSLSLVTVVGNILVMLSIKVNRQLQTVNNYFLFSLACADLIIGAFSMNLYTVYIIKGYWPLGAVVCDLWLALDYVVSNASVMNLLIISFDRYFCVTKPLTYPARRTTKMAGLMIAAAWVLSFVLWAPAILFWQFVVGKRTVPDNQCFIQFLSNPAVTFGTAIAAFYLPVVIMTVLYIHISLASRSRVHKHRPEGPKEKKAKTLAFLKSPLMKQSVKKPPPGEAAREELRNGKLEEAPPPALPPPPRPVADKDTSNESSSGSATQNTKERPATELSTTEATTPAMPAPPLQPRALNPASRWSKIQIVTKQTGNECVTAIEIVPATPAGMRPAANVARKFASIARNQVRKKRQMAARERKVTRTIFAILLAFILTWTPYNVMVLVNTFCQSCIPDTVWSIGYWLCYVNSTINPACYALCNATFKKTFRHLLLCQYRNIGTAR

[6] = molecular target: T5, Muscarinic acetylcholine receptor M4 (Homo sapiens, UniProt P08173); assay: Positive allosteric modulation of human M4 receptor expressed in CHO cells coexpressing Gqi5 by calcium mobilization assay; type: functional, cell-based
T5 sequence (P08173 whole entry): T4 sequence (whole entry)

[7] = molecular target: Cytochrome P450 3A4 (Homo sapiens, UniProt P08684); assay: Inhibition of CYP3A4 (unknown origin); type: ADME
Cytochrome P450 3A4, sequence (P08684 whole entry): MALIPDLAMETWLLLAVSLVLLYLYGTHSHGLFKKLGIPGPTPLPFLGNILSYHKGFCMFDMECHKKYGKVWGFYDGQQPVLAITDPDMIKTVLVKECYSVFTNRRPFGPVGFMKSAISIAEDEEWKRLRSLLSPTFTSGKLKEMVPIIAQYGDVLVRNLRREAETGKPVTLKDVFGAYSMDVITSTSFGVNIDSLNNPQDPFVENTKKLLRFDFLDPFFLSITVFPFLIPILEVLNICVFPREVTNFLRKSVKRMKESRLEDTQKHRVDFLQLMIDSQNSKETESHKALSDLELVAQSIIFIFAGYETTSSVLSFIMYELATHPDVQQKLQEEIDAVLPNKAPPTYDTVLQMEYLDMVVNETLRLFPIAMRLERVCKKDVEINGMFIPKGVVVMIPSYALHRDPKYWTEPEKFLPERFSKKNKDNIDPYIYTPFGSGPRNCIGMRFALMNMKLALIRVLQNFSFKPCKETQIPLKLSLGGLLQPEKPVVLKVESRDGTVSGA

[8] = Fraction unbound in human plasma; type: ADME, cell-free
[9] = molecular target: T6, Muscarinic acetylcholine receptor M5 (Homo sapiens) (UniProt P08912); assay: Positive allosteric modulation of human M5 receptor expressed in CHOK1 cells by calcium mobilization assay; type: functional, cell-based; conditions: CHO-K1
T6 sequence (whole entry): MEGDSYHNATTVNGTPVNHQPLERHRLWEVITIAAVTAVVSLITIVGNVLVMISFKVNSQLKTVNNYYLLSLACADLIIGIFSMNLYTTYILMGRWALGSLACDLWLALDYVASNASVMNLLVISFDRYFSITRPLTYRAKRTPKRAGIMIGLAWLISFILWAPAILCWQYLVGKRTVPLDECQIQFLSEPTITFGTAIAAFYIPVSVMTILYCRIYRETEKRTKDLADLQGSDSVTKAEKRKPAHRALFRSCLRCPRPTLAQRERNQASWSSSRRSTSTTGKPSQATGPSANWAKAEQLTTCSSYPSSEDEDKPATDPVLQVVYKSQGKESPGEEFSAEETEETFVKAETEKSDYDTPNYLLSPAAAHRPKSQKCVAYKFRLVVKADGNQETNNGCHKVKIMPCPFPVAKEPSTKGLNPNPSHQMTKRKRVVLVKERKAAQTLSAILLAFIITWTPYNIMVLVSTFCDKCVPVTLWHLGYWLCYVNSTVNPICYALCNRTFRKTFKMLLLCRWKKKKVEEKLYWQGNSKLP

[10] = molecular target: Cytochrome P450 2C9 (Homo sapiens, UniProt P11712); assay: Inhibition of CYP2C9 (unknown origin); type: ADME
Cytochrome P450 2C9, sequence (P11712 whole entry): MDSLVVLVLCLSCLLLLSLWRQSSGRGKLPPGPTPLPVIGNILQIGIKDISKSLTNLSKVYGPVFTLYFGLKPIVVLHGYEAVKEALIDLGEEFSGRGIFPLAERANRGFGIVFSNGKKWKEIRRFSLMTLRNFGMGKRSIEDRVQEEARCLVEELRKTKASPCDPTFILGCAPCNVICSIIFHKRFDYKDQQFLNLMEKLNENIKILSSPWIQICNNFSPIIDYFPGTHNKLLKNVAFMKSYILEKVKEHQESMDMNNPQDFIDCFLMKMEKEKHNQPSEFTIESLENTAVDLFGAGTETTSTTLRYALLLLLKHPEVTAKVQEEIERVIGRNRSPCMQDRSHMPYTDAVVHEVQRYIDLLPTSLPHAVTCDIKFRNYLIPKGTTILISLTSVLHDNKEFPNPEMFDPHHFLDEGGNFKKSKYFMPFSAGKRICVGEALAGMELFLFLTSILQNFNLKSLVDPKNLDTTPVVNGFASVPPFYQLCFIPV

[11] = molecular target: Cytochrome P450 2D6 (Homo sapiens, UniProt P10635); assay: Inhibition of CYP2D6 (unknown origin); type: ADME
Cytochrome P450 2D6, sequence (P10635 whole entry): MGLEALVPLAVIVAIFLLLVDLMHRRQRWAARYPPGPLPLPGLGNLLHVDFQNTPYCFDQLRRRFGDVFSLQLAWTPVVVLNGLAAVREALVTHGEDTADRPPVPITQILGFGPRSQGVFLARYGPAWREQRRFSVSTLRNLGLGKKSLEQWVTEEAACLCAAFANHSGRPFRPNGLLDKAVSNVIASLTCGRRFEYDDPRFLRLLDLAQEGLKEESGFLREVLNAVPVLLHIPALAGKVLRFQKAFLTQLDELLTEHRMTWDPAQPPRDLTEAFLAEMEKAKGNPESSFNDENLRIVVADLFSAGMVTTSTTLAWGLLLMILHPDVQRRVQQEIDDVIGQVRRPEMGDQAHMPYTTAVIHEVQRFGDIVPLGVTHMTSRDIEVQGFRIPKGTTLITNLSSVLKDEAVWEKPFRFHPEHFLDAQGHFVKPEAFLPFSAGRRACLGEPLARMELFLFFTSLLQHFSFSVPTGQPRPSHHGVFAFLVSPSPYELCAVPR

IC50 [1]: > 20 µM
EC50 [2]: 0.16 µM
%max [3]: 71%
fraction unbound [4]: 0.01
%max [5]: 76%
EC50 ([6]; read-out: EC50): 0.41 µM
EC50 ([6]; read-out: pEC50 (converted)): 1.2 µM
IC50 [7]: > 20 µM
fraction unbound [8]: 0.002
Activity [9]: inactive
IC50 [10]: 5.8 µM
IC50 [11]: 3.4 µM
Compound: Cc1sc2ncnc(N3CCC(C(=O)Nc4ccc(S(N)(=O)=O)cc4)CC3)c2c1C
